TGI data for 20 compounds are collected here from PubChem BioAssay (NCI).

Among the test systems are K-562 leukemia; M19-MEL melanoma; LXFL 529 NSCLC; KM20L2 colon; DMS 273 small cell lung; CAKI-1 renal; DMS 114 small cell lung; SNB-78 CNS; DLD-1 colon; RXF-631 renal; XF 498 CNS; HOP-18 NSCLC.
Holding throughout (experiment): NCI tumour cell line growth inhibition, 48 h

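Cultured in 96-well plates, cells were exposed to test compound for 48 hours across five concentrations. TGI: concentration producing complete growth inhibition.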

Consider `C[C@@]1(Cc2ccccc2)C(=O)N2[C@@H](CO)C(c3ccccc3)O[C@]2(C)c2ccccc21` (stereo not given in full), for which the TGI in the test with K-562 leukemia, in the test on M19-MEL melanoma, in the test on LXFL 529 NSCLC, with KM20L2 colon, with DMS 273 small cell lung and with CAKI-1 renal was more than 100 µM in each case. The TGI in the test with DMS 114 small cell lung, in the test on SNB-78 CNS and in the test with DLD-1 colon was more than 100 µM throughout.

As for `CCN(CC)CCC1(C2CCCCC2)CCC(=O)NC1=O` (stereo not given), the TGI in the test on K-562 leukemia, with M19-MEL melanoma, in the test with LXFL 529 NSCLC, with KM20L2 colon, in the test with DMS 273 small cell lung and with RXF-631 renal was more than 100 µM throughout. The TGI in the test on XF 498 CNS, in the test on CAKI-1 renal, in the test on DMS 114 small cell lung, in the test with SNB-78 CNS and with DLD-1 colon was more than 100 µM each time.

As to `C[C@@H]1O[C@]2(O)[C@@H]3CCCN3S(=O)(=O)CCN2C1=O`, the TGI with K-562 leukemia, in the test on HOP-18 NSCLC, with M19-MEL melanoma, in the test on LXFL 529 NSCLC, in the test with KM20L2 colon and in the test with RXF-631 renal was more than 100 µM each time. Moreover, the TGI in the test on XF 498 CNS, in the test with CAKI-1 renal, with SNB-78 CNS and with DLD-1 colon was more than 100 µM each time.

As for `O=C(Cc1ccc([N+](=O)[O-])c([N+](=O)[O-])c1CC(=O)C(=O)Nc1cc(Cl)ccc1Cl)C(=O)Nc1cc(Cl)ccc1Cl`, the TGI was more than 100 µM in the test with K-562 leukemia; more than 100 µM with HOP-18 NSCLC; more than 100 µM in the test on M19-MEL melanoma; more than 100 µM in the test on LXFL 529 NSCLC; more than 100 µM in the test on KM20L2 colon; 87.3 µM in the test with DMS 273 small cell lung. Besides, the TGI in the test with CAKI-1 renal, with DMS 114 small cell lung, in the test with SNB-78 CNS and with DLD-1 colon was more than 100 µM throughout.

Regarding `COc1ccccc1-n1c(N)c2c(C)c(-c3ccccc3)[nH]c2nc1=S`, the TGI with K-562 leukemia, in the test with HOP-18 NSCLC, in the test with M19-MEL melanoma, with LXFL 529 NSCLC, with KM20L2 colon and with DMS 273 small cell lung was more than 100 µM throughout. Also, the TGI in the test with XF 498 CNS, in the test with CAKI-1 renal, in the test with DMS 114 small cell lung and in the test with DLD-1 colon was more than 100 µM in each case.

`COc1cc(OC)c2c(=O)c3c([N+](=O)[O-])cccc3n(C)c2c1`: the TGI in the test on K-562 leukemia, in the test on HOP-18 NSCLC, in the test on M19-MEL melanoma, in the test on LXFL 529 NSCLC, in the test with KM20L2 colon and in the test on DMS 273 small cell lung was more than 100 µM in each case. Further, the TGI in the test with CAKI-1 renal, in the test on DMS 114 small cell lung, in the test on SNB-78 CNS and in the test on DLD-1 colon was more than 100 µM throughout.

As to `CCOC(=O)CCC(NC(=O)c1ccc(N=Cc2nc3ccccc3nc2-c2ccccc2)cc1)C(=O)OCC` (stereo not given), the TGI in the test on K-562 leukemia, in the test with HOP-18 NSCLC, in the test with LXFL 529 NSCLC, in the test on KM20L2 colon, in the test with DMS 273 small cell lung and in the test on RXF-631 renal was more than 100 µM each time. Further, the TGI with XF 498 CNS, in the test on CAKI-1 renal, with DMS 114 small cell lung, in the test with SNB-78 CNS and in the test on DLD-1 colon was more than 100 µM each time.

As to `CCOc1ccc(/C=C(\Cl)c2ccc(OC)cc2)cc1`, the TGI in the test on K-562 leukemia, with HOP-18 NSCLC, with M19-MEL melanoma, in the test with LXFL 529 NSCLC, in the test with KM20L2 colon and in the test with DMS 273 small cell lung was more than 100 µM in each case. In addition, the TGI in the test with XF 498 CNS, in the test on DMS 114 small cell lung, in the test with SNB-78 CNS and in the test with DLD-1 colon was more than 100 µM in each case.

For the compound `C[C@@H]1OC2(O)[C@H]3CCCN3S(=O)(=O)CCN2C1=O` (stereo not given in full), the TGI with K-562 leukemia, with HOP-18 NSCLC, with M19-MEL melanoma, in the test on LXFL 529 NSCLC, in the test with KM20L2 colon and with RXF-631 renal was more than 100 µM each time. Besides, the TGI in the test on CAKI-1 renal, in the test on SNB-78 CNS and in the test with DLD-1 colon was more than 100 µM each time.

In the case of `CCOC(=O)C(/C(=N\NC(=O)OC)C(=O)Nc1cc(OC)ccc1OC)c1cnc2ccccc2n1` (stereo not given), the TGI in the test with K-562 leukemia, in the test with HOP-18 NSCLC, in the test with M19-MEL melanoma, in the test with LXFL 529 NSCLC, in the test on XF 498 CNS and in the test on CAKI-1 renal was more than 100 µM each time. Besides, the TGI in the test on DMS 114 small cell lung, in the test with SNB-78 CNS and in the test with DLD-1 colon was more than 100 µM each time.

Consider `O=C(N/N=C(/c1nc2ccc([N+](=O)[O-])cc2[nH]c1=O)C(O)c1ccc([N+](=O)[O-])cc1)c1ccncc1` (stereo not given), for which the TGI in the test on K-562 leukemia, with HOP-18 NSCLC, with M19-MEL melanoma, in the test on LXFL 529 NSCLC, with XF 498 CNS and in the test with CAKI-1 renal was more than 100 µM in each case. The TGI with DMS 114 small cell lung, in the test with SNB-78 CNS and in the test with DLD-1 colon was more than 100 µM each time.

Turning to `CCOC(=O)c1cnc2c(ccc3[nH]cccc32)c1=O`, the TGI with K-562 leukemia, in the test with HOP-18 NSCLC, with M19-MEL melanoma, in the test with LXFL 529 NSCLC, in the test on KM20L2 colon and with DMS 273 small cell lung was more than 100 µM in each case. In addition, the TGI in the test on DMS 114 small cell lung, in the test on SNB-78 CNS and with DLD-1 colon was more than 100 µM each time.

With `CC1(C)OCN(c2ccc(S(N)(=O)=O)cc2)Cn2c1nc1ccccc12`, the TGI in the test with K-562 leukemia, in the test with HOP-18 NSCLC, with M19-MEL melanoma, in the test with LXFL 529 NSCLC, in the test with KM20L2 colon and with DMS 273 small cell lung was more than 100 µM each time. The TGI in the test with XF 498 CNS, in the test on DMS 114 small cell lung, in the test with SNB-78 CNS and in the test on DLD-1 colon was more than 100 µM in each case.

With `COc1cc(C2C(C(=O)Nc3ccc([N+](=O)[O-])cc3)=C(C)NC(C)=C2C(=O)Nc2ccc([N+](=O)[O-])cc2)ccc1O`, the TGI with K-562 leukemia is 81.6 µM; with HOP-18 NSCLC, more than 74.2 µM; in the test with M19-MEL melanoma it was 43.3 µM; in the test with LXFL 529 NSCLC it was 64 µM; with KM20L2 colon, 34.7 µM; in the test on DMS 273 small cell lung it was 53.3 µM. Also, the TGI in the test with RXF-631 renal is more than 100 µM; in the test with XF 498 CNS, 69.1 µM; in the test on CAKI-1 renal, more than 86.6 µM; in the test with DMS 114 small cell lung, more than 74.5 µM; in the test on SNB-78 CNS, more than 100 µM; in the test on DLD-1 colon it was more than 68.6 µM.

For `Clc1ccc(CCc2ccncn2)c(Cl)c1`, the TGI in the test on K-562 leukemia, with HOP-18 NSCLC, in the test with M19-MEL melanoma, with LXFL 529 NSCLC, in the test with KM20L2 colon and in the test with DMS 273 small cell lung was more than 100 µM each time. The TGI with RXF-631 renal, in the test with CAKI-1 renal, in the test on DMS 114 small cell lung, in the test with SNB-78 CNS and in the test with DLD-1 colon was more than 100 µM in each case.

Turning to `COc1ccccc1-n1c(NN)nc2ccc(Br)cc2c1=O`, the TGI with K-562 leukemia was more than 100 µM; with HOP-18 NSCLC it was 61.5 µM; in the test with M19-MEL melanoma, more than 100 µM; with LXFL 529 NSCLC, more than 100 µM; with KM20L2 colon, more than 100 µM; in the test with DMS 273 small cell lung it was more than 100 µM. Further, the TGI in the test on RXF-631 renal is more than 100 µM; in the test on XF 498 CNS it was 92.1 µM; in the test on CAKI-1 renal it was more than 100 µM; in the test on DMS 114 small cell lung, more than 100 µM; in the test on SNB-78 CNS it was more than 100 µM; in the test with DLD-1 colon, more than 100 µM.

Regarding `CCCCNC(=NCc1ccccc1)NC#N`, the TGI in the test on M19-MEL melanoma, with LXFL 529 NSCLC, in the test with KM20L2 colon, in the test with DMS 273 small cell lung, in the test with XF 498 CNS and in the test on CAKI-1 renal was more than 100 µM in each case. The TGI with SNB-78 CNS and in the test with DLD-1 colon was more than 100 µM in each case.

Regarding `C/C(=N\NC(=S)NC(CCC(=O)O)C(=O)O)c1cnccn1` (stereo not given), the TGI in the test with K-562 leukemia, with HOP-18 NSCLC, in the test on M19-MEL melanoma, in the test on LXFL 529 NSCLC, with KM20L2 colon and in the test with RXF-631 renal was more than 100 µM in each case. The TGI in the test on XF 498 CNS, with DMS 114 small cell lung, with SNB-78 CNS and with DLD-1 colon was more than 100 µM throughout.

As for `CC12C(=C(C#N)C(=N)N1c1ccc(Cl)c(Cl)c1)C=C(O)CC2SCCS(=O)(=O)O` (stereo not given), the TGI in the test with K-562 leukemia, in the test with M19-MEL melanoma, in the test on LXFL 529 NSCLC, in the test with KM20L2 colon, in the test on DMS 273 small cell lung and in the test on CAKI-1 renal was more than 100 µM in each case. The TGI in the test on DMS 114 small cell lung, in the test with SNB-78 CNS and with DLD-1 colon was more than 100 µM throughout.

In the case of `N#C/C(=C\c1cc(O)ccc1O)C(N)=O`, the TGI with K-562 leukemia, in the test with M19-MEL melanoma, with LXFL 529 NSCLC, in the test with KM20L2 colon, with DMS 273 small cell lung and in the test on RXF-631 renal was more than 100 µM throughout. The TGI with XF 498 CNS is more than 100 µM; with CAKI-1 renal it was more than 100 µM; in the test on DMS 114 small cell lung it was 70.9 µM; in the test with SNB-78 CNS it was more than 100 µM; in the test with DLD-1 colon it was more than 100 µM.
